Source: ChEMBL document CHEMBL1151151, “Anti-AIDS agents, 2: Inhibitory effects of tannins on HIV reverse transcriptase and HIV replication in H9 lymphocyte cells” (J Nat Prod, 1990)
Active and inactive are the calls of the source. The calls are words filed in the database; no cut-off is given here.

What was measured:
[1] = test system: Human immunodeficiency virus 1; experiment: Antiviral activity against HIV1 3B infected in human H9 cells assessed as inhibition of viral replication at 10 uM pretreated before viral infection by p24 antigen capture assay; format: functional, organism-based
[2] = test system: Human immunodeficiency virus 1; experiment: Antiviral activity against HIV1 3B infected in human H9 cells assessed as inhibition of viral replication after 3 days by p24 antigen capture assay; format: functional; set-up: concentration or dose not given beside the values
[3] = test system: Human immunodeficiency virus 1; experiment: Antiviral activity against HIV1 3B infected in human H9 cells assessed as inhibition of viral replication at 21 uM treated after viral infection by p24 antigen capture assay; format: functional, organism-based
[4] = test system: Human immunodeficiency virus 1; experiment: Antiviral activity against HIV1 3B infected in human H9 cells assessed as inhibition of viral replication at 18 uM treated after viral infection by p24 antigen capture assay; format: functional, organism-based
[5] = test system: Human immunodeficiency virus 1; experiment: Antiviral activity against HIV1 3B infected in human H9 cells assessed as inhibition of viral replication at 10 uM treated during viral infection step by p24 antigen capture assay; format: functional, organism-based
[6] = test system: Human immunodeficiency virus 1; experiment: Antiviral activity against HIV1 3B infected in human H9 cells assessed as inhibition of viral replication at 18 uM pretreated before viral infection by p24 antigen capture assay; format: functional, organism-based
[7] = test system: Human immunodeficiency virus 1; experiment: Antiviral activity against HIV1 3B infected in human H9 cells assessed as inhibition of viral replication at 18 uM treated during viral infection step by p24 antigen capture assay; format: functional, organism-based
[8] = target: Human immunodeficiency virus type 1 reverse transcriptase (Human immunodeficiency virus 1) (UniProt Q72547); experiment: Inhibition of HIV reverse transcriptase
[9] = test system: Human immunodeficiency virus 1; experiment: Antiviral activity against HIV1 3B infected in human H9 cells assessed as inhibition of viral replication at 13 uM treated during viral infection step by p24 antigen capture assay; format: functional, organism-based
[10] = target: Human immunodeficiency virus type 1 reverse transcriptase (Human immunodeficiency virus 1) (UniProt Q72547); experiment: Inhibition of polymerase activity of HIV reverse transcriptase assessed as residual enzyme activity at 64 uM in presence of 375 ug/ml activated dNA and 5 uM dTTP
[11] = Growth inhibition of human H9 cells at 30 uM; format: cell-based; details: read-out: GI
[12] = test system: Human immunodeficiency virus 1; experiment: Antiviral activity against HIV1 3B infected in human H9 cells assessed as inhibition of viral replication at 13 uM pretreated before viral infection by p24 antigen capture assay; format: functional, organism-based
[13] = target: Human immunodeficiency virus type 1 reverse transcriptase (Human immunodeficiency virus 1) (UniProt Q72547); experiment: Inhibition of HIV reverse transcriptase at 12.5 uM; details: TDE = time-dependent effect
[14] = target: Human immunodeficiency virus type 1 reverse transcriptase (Human immunodeficiency virus 1) (UniProt Q72547); experiment: Inhibition of polymerase activity of HIV reverse transcriptase assessed as residual enzyme activity at 64 uM in presence of 75 ug/ml activated dNA and 25 uM dTTP
[15] = target: Human immunodeficiency virus type 1 reverse transcriptase (Human immunodeficiency virus 1) (UniProt Q72547); experiment: Inhibition of polymerase activity of HIV reverse transcriptase assessed as residual enzyme activity at 64 uM in presence of 75 ug/ml activated dNA and 5 uM dTTP
[16] = target: Human immunodeficiency virus type 1 reverse transcriptase (Human immunodeficiency virus 1) (UniProt Q72547); experiment: Inhibition of polymerase activity of HIV reverse transcriptase assessed as residual enzyme activity at 46 uM in presence of 75 ug/ml activated dNA and 25 uM dTTP
[17] = test system: Human immunodeficiency virus 1; experiment: Antiviral activity against HIV1 3B infected in human H9 cells assessed as inhibition of viral replication at 9.2 uM treated during viral infection step by p24 antigen capture assay; format: functional, organism-based
[18] = target: Human immunodeficiency virus type 1 reverse transcriptase (Human immunodeficiency virus 1) (UniProt Q72547); experiment: Inhibition of polymerase activity of HIV reverse transcriptase assessed as residual enzyme activity at 46 uM in presence of 375 ug/ml activated dNA and 5 uM dTTP
[19] = target: Human immunodeficiency virus type 1 reverse transcriptase (Human immunodeficiency virus 1) (UniProt Q72547); experiment: Inhibition of polymerase activity of HIV reverse transcriptase assessed as residual enzyme activity at 46 uM in presence of 75 ug/ml activated dNA and 5 uM dTTP
[20] = test system: Human immunodeficiency virus 1; experiment: Antiviral activity against HIV1 3B infected in human H9 cells assessed as inhibition of viral replication at 9.2 uM pretreated before viral infection by p24 antigen capture assay; format: functional, organism-based
[21] = test system: Human immunodeficiency virus 1; experiment: Antiviral activity against HIV1 3B infected in human H9 cells assessed as inhibition of viral replication at 21 uM treated during viral infection step by p24 antigen capture assay; format: functional, organism-based
[22] = test system: Human immunodeficiency virus 1; experiment: Antiviral activity against HIV1 3B infected in human H9 cells assessed as inhibition of viral replication at 21 uM pretreated before viral infection by p24 antigen capture assay; format: functional, organism-based

SMILES | inhibition (INH) [2] [%] | Activity [3] | Activity [4] | ID50 [8] [µM] | other results
O=C(O)C[C@H]1C(=O)O[C@H]2[C@H](OC(=O)c3cc(O)c(O)c(O)c3)[C@@H](OC(=O)c3cc(O)c(O)c4c3[C@H]1[C@H](O)C(=O)O4)[C@H](OC(=O)c1cc(O)c(O)c(O)c1)O[C@@H]2COC(=O)c1cc(O)c(O)c(O)c1 [CHEBULINIC ACID] | >50 | Active | Active | – | Activity [1]: Active; Activity [5]: Active
O=C(O[C@@H]1[C@H](O)C[C@@](OC(=O)c2cc(O)c(O)c(O)c2)(C(=O)O)C[C@H]1OC(=O)c1cc(O)c(O)c(O)c1)c1cc(O)c(O)c(O)c1 | >50 | Active | Active | – | Activity [6]: Active; Activity [7]: Active
O=C(O)C[C@@H]1C(=O)O[C@H]2[C@@H]3OC(=O)c4cc(O)c(O)c(O)c4-c4c(cc(O)c(O)c4O)C(=O)OC[C@H]2O[C@@H](OC(=O)c2cc(O)c(O)c(O)c2)[C@@H]3OC(=O)c2cc(O)c(O)c3c2[C@H]1[C@H](O)C(=O)O3 [CHEBULAGIC ACID] | >50 | Active | Active | – | Activity [1]: inactive; Activity [5]: Active
O=C(O[C@@H]1O[C@@H]2COC(=O)c3cc(O)c(O)c(O)c3-c3c(cc(O)c(O)c3O)C(=O)O[C@H]2[C@@H]2OC(=O)c3cc(O)c(O)c(O)c3-c3c(cc(O)c(O)c3O)C(=O)O[C@@H]12)c1cc(O)c(O)c(Oc2c(O)c(O)c(O)c3c2C(=O)O[C@H]2[C@@H]4OC(=O)c5cc(O)c(O)c(O)c5-c5c(cc(O)c(O)c5O)C(=O)O[C@H]4[C@@H](OC(=O)c4cc(O)c(O)c(Oc5c(O)c(O)c(O)c6c5C(=O)O[C@H]5[C@@H]7OC(=O)c8cc(O)c(O)c(O)c8-c8c(cc(O)c(O)c8O)C(=O)O[C@H]7[C@H](OC(=O)c7cc(O)c(O)c(Oc8c(O)c(O)c(O)c9c8C(=O)O[C@H]8[C@@H]%10OC(=O)c%11cc(O)c(O)c(O)c%11-c%11c(cc(O)c(O)c%11O)C(=O)O[C@H]%10[C@@H](OC(=O)c%10cc(O)c(O)c(O)c%10)O[C@@H]8COC(=O)c8cc(O)c(O)c(O)c8-9)c7)O[C@@H]5COC(=O)c5cc(O)c(O)c(O)c5-6)c4)O[C@@H]2COC(=O)c2cc(O)c(O)c(O)c2-3)c1 | – | – | – | 20 | –
O=C1OC[C@H]2O[C@@H](O)[C@H](O)[C@@H](O)[C@@H]2OC(=O)c2cc(O)c(O)c(O)c2-c2c(O)c(O)c3oc(=O)c4c(c(O)c(O)c5oc(=O)c2c3c54)-c2c1cc(O)c(O)c2O [PUNICALIN] | >50 | Active | Active | 8 | Activity [9]: Active; Activity [10]: 45.3%; inhibition at 30 µM [11]: 15%; Activity [8]: Dose-dependent effect; Activity [12]: inactive; Activity [13]: tde; Activity [14]: 34.4%; Activity [15]: 11.4%
O=C1O[C@H]([C@@H]2OC(=O)c3cc(O)c(O)c(O)c3-c3c(O)c(O)c4oc(=O)c5c(c(O)c(O)c6oc(=O)c3c4c65)-c3c(cc(O)c(O)c3O)C(=O)OC[C@H]2O)[C@@H]2OC(=O)c3c(c(O)c(O)c(O)c3[C@H]2O)-c2c1cc(O)c(O)c2O [PUNICACORTEIN C] | >50 | Active | Active | 5 | Activity [16]: 37.6%; Activity [17]: Active; Activity [18]: 46.2%; Activity [19]: 21.5%; Activity [20]: Active
O=C(O)C1=C[C@@H](OC(=O)c2cc(O)c(O)c(O)c2)[C@@H](O)[C@H](OC(=O)c2cc(O)c(O)c(O)c2)C1 | >50 | Active | Active | – | Activity [21]: Active; Activity [22]: Active
O=C1O[C@@H]2[C@@H](OC(=O)c3cc(O)c(O)c(O)c3-c3c1cc(O)c(O)c3O)[C@H](O)O[C@@H]1COC(=O)c3cc(O)c(O)c(O)c3-c3c(O)c(O)c4oc(=O)c5c(c(O)c(O)c6oc(=O)c3c4c65)-c3c(cc(O)c(O)c3O)C(=O)O[C@@H]21 [PUNICALAGIN] | >50 | Active | Active | – | Activity [17]: Active; Activity [20]: Active
O=C(O)C1=C[C@@H](OC(=O)c2cc(O)c(O)c(O)c2)[C@@H](OC(=O)c2cc(O)c(O)c(O)c2)[C@H](OC(=O)c2cc(O)c(O)c(O)c2)C1 | >50 | – | – | – | –
